Experiment: wn = mass fraction of the nth substance listed
Conditions: Liquid; for mass density: Vibrating tube method

NCCO [2-aminoethan-1-ol] + O
mass density [kg/m3]
Conditions	w1 = 0.1001	w1 = 0.2	w1 = 0.3005	w1 = 0.4
333.15 K, 30000 kPa	–	–	1003.5	1006.7
333.15 K, 40000 kPa	1002.7	1004.5	1007.3	1010.4
333.15 K, 50000 kPa	1006.5	1008	1010.8	1013.8
333.15 K, 60000 kPa	1010.4	1011.7	1014.4	1017.3
333.15 K, 70000 kPa	1014.1	1015.2	1017.8	1020.7
333.15 K, 80000 kPa	1017.7	1018.7	1021.1	1024
333.15 K, 90000 kPa	1021.3	1022.1	1024.4	1027.1
333.15 K, 100000 kPa	1024.8	1025.5	1027.7	1030.3
333.15 K, 110000 kPa	1028.1	1028.8	1031	1033.5
333.15 K, 120000 kPa	1031.7	1032.2	1034.2	1036.7
353.15 K, 100 kPa	974.7	976.7	979.2	981.9
353.15 K, 500 kPa	974.7	976.7	979.4	982
353.15 K, 1000 kPa	975	976.9	979.6	982.2
353.15 K, 2000 kPa	975.4	977.4	980	982.6
353.15 K, 5000 kPa	976.7	978.6	981.2	983.9
353.15 K, 10000 kPa	978.9	980.8	983.3	986
353.15 K, 15000 kPa	981.1	982.9	985.4	988
353.15 K, 20000 kPa	983.2	984.9	987.4	990
353.15 K, 30000 kPa	987.4	988.9	991.4	993.9
353.15 K, 40000 kPa	991.4	992.9	995.2	997.7
353.15 K, 50000 kPa	995.4	996.7	999	1001.4
353.15 K, 60000 kPa	999.4	1000.6	1002.7	1005.1
353.15 K, 70000 kPa	1003.1	1004.2	1006.2	1008.6
353.15 K, 80000 kPa	1006.9	1007.7	1009.8	1012.1
353.15 K, 90000 kPa	1010.5	1011.3	1013.1	1015.3
353.15 K, 100000 kPa	1014.1	1014.7	1016.6	1018.7
353.15 K, 110000 kPa	1017.7	1018.2	1020	1022.1

viscosity [mPa·s]
Conditions	333.15 K	353.15 K
93 kPa, Concentric cylinders viscometry, w1 = 0.3	–	0.764
93 kPa, Concentric cylinders viscometry, w1 = 0.4	–	0.9518
100 kPa, Falling or rolling sphere viscometry, w1 = 0.3005	–	0.746
100 kPa, Falling or rolling sphere viscometry, w1 = 0.4001	–	0.942
101 kPa, Falling or rolling sphere viscometry, w1 = 0.3	–	0.746
101 kPa, Falling or rolling sphere viscometry, w1 = 0.4	–	0.942
5000 kPa, Falling or rolling sphere viscometry, w1 = 0.3005	–	0.748
5000 kPa, Falling or rolling sphere viscometry, w1 = 0.4001	–	0.944
10000 kPa, Falling or rolling sphere viscometry, w1 = 0.3005	–	0.755
10000 kPa, Falling or rolling sphere viscometry, w1 = 0.4001	–	0.957
20000 kPa, Falling or rolling sphere viscometry, w1 = 0.3005	–	0.768
20000 kPa, Falling or rolling sphere viscometry, w1 = 0.4001	–	0.975
30000 kPa, Falling or rolling sphere viscometry, w1 = 0.3005	–	0.777
30000 kPa, Falling or rolling sphere viscometry, w1 = 0.4001	–	0.989
40000 kPa, Falling or rolling sphere viscometry, w1 = 0.1001	0.63	–
40000 kPa, Falling or rolling sphere viscometry, w1 = 0.2	0.815	–
40000 kPa, Falling or rolling sphere viscometry, w1 = 0.3005	1.115	0.787
40000 kPa, Falling or rolling sphere viscometry, w1 = 0.4001	1.475	1.006
60000 kPa, Falling or rolling sphere viscometry, w1 = 0.1001	0.639	–
60000 kPa, Falling or rolling sphere viscometry, w1 = 0.2	0.829	0.607
60000 kPa, Falling or rolling sphere viscometry, w1 = 0.3005	1.14	0.807
60000 kPa, Falling or rolling sphere viscometry, w1 = 0.4001	1.518	1.039
80000 kPa, Falling or rolling sphere viscometry, w1 = 0.1001	0.646	–
80000 kPa, Falling or rolling sphere viscometry, w1 = 0.2	0.844	0.619
80000 kPa, Falling or rolling sphere viscometry, w1 = 0.3005	1.165	0.828
80000 kPa, Falling or rolling sphere viscometry, w1 = 0.4001	1.559	1.068
100000 kPa, Falling or rolling sphere viscometry, w1 = 0.1001	0.655	–
100000 kPa, Falling or rolling sphere viscometry, w1 = 0.2	0.859	0.632
100000 kPa, Falling or rolling sphere viscometry, w1 = 0.3005	1.189	0.847
100000 kPa, Falling or rolling sphere viscometry, w1 = 0.4001	1.6	1.097
120000 kPa, Falling or rolling sphere viscometry, w1 = 0.1001	0.663	–
120000 kPa, Falling or rolling sphere viscometry, w1 = 0.2	0.874	–
120000 kPa, Falling or rolling sphere viscometry, w1 = 0.3005	1.211	–
120000 kPa, Falling or rolling sphere viscometry, w1 = 0.4001	1.645	–

Reference: the NIST ThermoML archive (doi:10.1016/j.jct.2016.03.021)
